“And” between values parts separate entries of the source, which are not always exact repeats. Equal values may be shown once. “Also recorded” adds a separate entry of the source. Read-outs that look alike come from different tables or passages of the source.
Key:
[1] = target: T1, P2Y receptor (turkey erythrocyte membranes) (Meleagris gallopavo, UniProt P49652); assay: Stimulation of phospholipase C (inositol phosphate formation) in turkey erythrocyte membranes; format: biochemical
T1 construct: from tissue; host or cells: washed turkey erythrocytes, ghosts prepared by hypotonic lysis
T1 sequence (P49652 whole entry): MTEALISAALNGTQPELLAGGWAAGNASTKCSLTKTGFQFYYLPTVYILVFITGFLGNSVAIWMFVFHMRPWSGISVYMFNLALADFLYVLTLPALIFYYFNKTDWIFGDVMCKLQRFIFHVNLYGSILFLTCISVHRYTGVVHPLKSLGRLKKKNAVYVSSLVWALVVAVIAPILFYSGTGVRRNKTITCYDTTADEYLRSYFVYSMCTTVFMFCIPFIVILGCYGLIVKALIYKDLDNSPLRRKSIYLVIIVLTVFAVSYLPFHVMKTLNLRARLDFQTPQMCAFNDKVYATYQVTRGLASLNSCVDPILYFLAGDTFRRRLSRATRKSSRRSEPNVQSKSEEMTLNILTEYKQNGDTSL
Experimental: Phospholipase C activity: Stimulation of inositol phosphate formation by compounds of the present invention was measured in turkey erythrocyte membranes as described by Harden et al., supra and Boyer et al., supra. The K0.5 values were averaged from 3-8 independently determined dose-response curves for each compound. Briefly, one ml of washed turkey erythrocytes was incubated in inositol-free medium (DMEM; Gibco) with 0.5-1 mCi of 2-[^3 H]myoinositol (20 Ci/mmol; American Radiolabeled Chemicals Inc., St. Louis, Mo.)for 18-24 h in a humidified atmosphere of 95% air 5% CO2 at 37° C. Erythrocyte ghosts were prepared by rapid lysis in hypotonic buffer (5 mM sodium phosphate, pH 7.4, 5 mM MgCl2, 1 mM EGTA) as described by Boyer et al., supra. Phospholipase C activity was measured in 25 μl of [^3 H]inositol-labeled ghosts (≈175 μg of protein, 200-500,000 cpm/assay) in a medium containing 424 μM CaC12, 0.91 mM MgSO4, 2 mM EGTA, 115 mM KCl, 5 mM KH2 PO4, and 10 mM Hepes, pH 7.0. Assay (100 μl or 200 μl final volume) contained 1 μM GTPγS and the indicated concentrations of nucleotide analogs. Ghosts were incubated at 30° C. for 5 min, and total [^3 H]inositol phosphates were quantitated after purification by anion exchange chromatography according to Harden et al. (supra) and Boyer et al. (supra).
(§1) Phospholipase C activity and muscle relaxation/contraction effects were assessed using the methods recited in Example 3. In FIGS. 10-12, which present the result of assays of phospholipase C activity in turkey erythrocyte membranes, the x-axis is marked in units of the log of the molar concentration of the putative P2Y receptor agonist tested and the y-axis is marked in units of the percentage of maximum production of [^3 H]-inositol phosphate generated. In FIG. 13, the x-axis is marked in units of the negative log of the molar concentration of applied putative P2Y receptor agonists and the y-axis is marked in units of the percentage relaxation of the 50 nM carbachol-induced contraction of guinea pig taenia coli. In FIG. 14, the x-axis is also marked in units of the negative log of the molar concentration of applied putative P2Y receptor agonists and the y-axis is marked in units of the percentage relaxation of the 1 μM noradrenalin-induced contraction of rabbit aorta endothelium. In FIGS. 15-16, the x-axis is marked in units of the negative log of the molar concentration of applied putative p^2X receptor agonists and the y-axis is marked in units of the percentage contraction relative to a standard dose of KCl (i.e., 60 mM), as assessed in guinea pig isolated urinary bladder detrussor muscle (FIG. 15) and guinea pig isolated vas deferens (FIG. 16).

[2] = tested on: P2Y receptor (aorta endothelium); assay: Relaxation of noradrenalin-contracted rabbit aorta; settings: for relaxation pD2, aorta: rabbit aorta, log molar units
[3] = target: T2, adenylyl cyclase linked P2Y receptor (C6 rat glioma cells) (Rattus norvegicus, UniProt Q9EPX4); assay: Inhibition of adenylyl cyclase in C6 rat glioma cells; format: cell-based; settings: for IC50: C6 rat glioma cells, 10 μM isoproterenol, read-out: K0.5 values (in nM) for inhibition of adenylyl cyclase in C6 cells; for selectivity for the adenylyl cyclase linked receptor, in words: versus phospholipase C linked receptor; for selectivity for the adenylyl cyclase linked (C6 cell) receptor: versus phospholipase C linked turkey erythrocyte receptor
T2 construct: endogenous in cells; host or cells: C6 rat glioma cells
T2 sequence (Q9EPX4 whole entry): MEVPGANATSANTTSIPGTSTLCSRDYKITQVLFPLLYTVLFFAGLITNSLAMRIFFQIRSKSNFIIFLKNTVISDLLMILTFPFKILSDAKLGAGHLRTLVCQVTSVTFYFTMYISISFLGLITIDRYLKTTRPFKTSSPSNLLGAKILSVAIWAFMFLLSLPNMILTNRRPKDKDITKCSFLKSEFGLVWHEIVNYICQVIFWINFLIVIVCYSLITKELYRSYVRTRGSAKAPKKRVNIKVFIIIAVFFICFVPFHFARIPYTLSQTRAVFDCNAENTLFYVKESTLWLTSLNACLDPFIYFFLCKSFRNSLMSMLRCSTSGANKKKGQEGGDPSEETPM
Experimental: This example illustrates the inhibition of adenylyl cyclase activity in C6 rat glioma cells, as a function of the presence of certain ATP analogs in the medium in which the C6 cells were cultured.
Cells were labelled by incubation for 2 hours in the presence of 1 to 2 mCi of tritiated adenine/ml in the medium. Cells were washed twice with HEPES (20 mM, pH 7.5)-buffered Eagle's medium and then preincubated for 10 minutes at 37° C. with fresh medium containing 200 μM 3-isobutyl-1-methylxanthine. Agonist incubations were initiated by the simultaneous addition of 10 μM isoproterenol and various concentrations of nucleotides. The reactions were stopped after 10 minutes of aspiration of the nucleotide-containing medium and addition of 1 ml of ice-cold 5% trichloroacetic acid.

[4] = target: T3, P2Y receptor (taenia coli) (Cavia porcellus, UniProt P59902); assay: Relaxation of carbachol-contracted guinea pig taenia coli; settings: for activity/potency in words, taenia coli: guinea pig taenia coli
T3 construct: Relaxant responses mediated via P2Y receptors were examined in guinea pig taenia coli; from tissue; host or cells: guinea pig taenia coli (carbachol-contracted)
T3 sequence (P59902 whole entry): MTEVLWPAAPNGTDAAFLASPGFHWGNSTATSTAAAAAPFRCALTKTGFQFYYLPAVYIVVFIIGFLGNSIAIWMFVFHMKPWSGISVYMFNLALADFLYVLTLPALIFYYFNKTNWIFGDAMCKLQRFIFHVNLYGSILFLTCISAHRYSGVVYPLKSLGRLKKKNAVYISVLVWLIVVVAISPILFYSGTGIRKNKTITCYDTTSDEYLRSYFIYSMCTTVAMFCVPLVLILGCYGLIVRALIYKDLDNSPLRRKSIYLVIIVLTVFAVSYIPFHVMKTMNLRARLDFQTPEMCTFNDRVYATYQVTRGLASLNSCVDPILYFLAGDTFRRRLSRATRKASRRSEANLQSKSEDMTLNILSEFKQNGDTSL
Excerpt: (§2) Muscular relaxation/contraction: Relaxant responses mediated via P2Y receptors were examined in guinea pig taenia coli, rabbit aorta, and rabbit mesenteric artery, as described by Hoyle et al. (Br. J. Pharmacol., 107, 367-374 (1992a)), Burnstock et al., (Br. J. Pharmacol., 90, 383-391 (1987a)), and Rubino et al., (Eur. J. Pharmacol., 212, 237-240 (1992)). Contractile responses mediated via P2X receptors were examined in the guinea pig urinary bladder and vas deferens, and rabbit saphenous artery, also using standard methods (see Hoyle et al., supra., 1992; Hoyle et al., Br. J. Pharmacol., 99, 617-621 (1990); and Burnstock et al., Br. J. Pharmacol., 90, 111-120 (1987b)).
Muscular relaxation assays were performed as recited in Example 3. […] All curves are the mean of two determinations except for 5'-ATP (n=38), 2-hexylthio-ATP (n=4), 2-(5-hexenyl)thio-ATP (n=3), and 2-(2-4-nitrophenylethyl)thio-AMP (n=5). […] The pD2 value for 2-methylthio-ATP is 8.0±0.15, as reported by Hoyle et al., in Receptor Data for Biological Experiments, (H. N. Doods and J. C. A. Van Meel, eds., 1992b) at pp. 54-61.
as §1

[5] = target: T4, P2X receptor (saphenous artery) (Oryctolagus cuniculus, UniProt G1U3D6); assay: Contraction of rabbit saphenous artery; settings: rabbit saphenous artery
T4 construct: and rabbit saphenous artery; from tissue; host or cells: rabbit saphenous artery
T4 sequence (G1U3D6 1-399): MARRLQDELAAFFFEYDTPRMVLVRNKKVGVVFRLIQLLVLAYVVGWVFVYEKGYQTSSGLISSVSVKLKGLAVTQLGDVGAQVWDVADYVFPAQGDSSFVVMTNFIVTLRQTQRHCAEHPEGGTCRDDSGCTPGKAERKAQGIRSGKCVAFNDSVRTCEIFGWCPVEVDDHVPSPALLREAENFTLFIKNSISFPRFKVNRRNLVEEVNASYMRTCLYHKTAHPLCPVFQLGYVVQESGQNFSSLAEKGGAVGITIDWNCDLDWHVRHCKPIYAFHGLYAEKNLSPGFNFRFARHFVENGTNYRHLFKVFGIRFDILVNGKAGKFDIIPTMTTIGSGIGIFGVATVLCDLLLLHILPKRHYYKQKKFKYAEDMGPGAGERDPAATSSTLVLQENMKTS
Excerpt: as §2
^c For the saphenous artery, the percentages in brackets are response
at 10 μM relative to the contraction produced by 1 μM α,MeATP
ATP in this assay is very weak (EC50 =
1.78 mM). The highest concentrations of the analogues tested were 3-30

[6] = target: P2Y receptor (mesenteric artery); assay: Relaxation of rabbit mesenteric artery; settings: for relaxation pD2, mes. artery: log molar units
[7] = target: T5, P2X receptor (vas deferens) (Cavia porcellus, UniProt A0A286XVA9); assay: Contraction of guinea pig isolated vas deferens
T5 sequence (A0A286XVA9 1-399): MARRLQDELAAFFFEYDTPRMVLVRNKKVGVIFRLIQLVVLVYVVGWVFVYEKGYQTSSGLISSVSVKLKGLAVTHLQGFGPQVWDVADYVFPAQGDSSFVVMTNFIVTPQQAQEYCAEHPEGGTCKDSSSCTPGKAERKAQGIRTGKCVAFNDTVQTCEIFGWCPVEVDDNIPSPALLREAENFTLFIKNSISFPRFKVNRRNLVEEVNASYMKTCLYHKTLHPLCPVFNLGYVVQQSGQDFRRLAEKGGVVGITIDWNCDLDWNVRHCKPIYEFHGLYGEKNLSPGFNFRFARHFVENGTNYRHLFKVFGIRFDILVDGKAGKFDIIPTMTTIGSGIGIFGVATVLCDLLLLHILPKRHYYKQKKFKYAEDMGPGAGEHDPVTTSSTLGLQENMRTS

[8] = target: T6, P2X receptor (urinary bladder) (Cavia porcellus, UniProt A0A286XVA9); assay: Contraction of guinea pig isolated urinary bladder detrussor muscle; settings: guinea pig urinary bladder
T6 construct: guinea pig isolated urinary bladder detrussor muscle; from tissue; host or cells: guinea pig isolated urinary bladder detrusor muscle

[9] = turkey erythrocyte membranes, mean ± S.E.M. for at least 2 determinations, read-out: phosphatidyl inositol metabolism (K0.5, nM) erythrocyte
[10] = turkey erythrocyte membranes, read-out: K0.5

activity/potency in words, saphenous artery [5] | activity/potency in words, mesenteric artery [6] | Compound | activity/potency in words, turkey erythrocyte ([1]; turkey erythrocyte membranes) | EC50 [1, 9] [nM] | EC50 [1, 10] | relaxation pD2, aorta [2] | IC50 [3] [nM] | selectivity for the adenylyl cyclase linked receptor, in words [3] | EC50 [4] [nM] | activation at 10 µM ([5]; 10 μM, read-out: response at 10 μM relative to the contraction produced by 1 μM α,MeATP, saph. artery) [%] | relaxation pD2, mes. artery [6] | fold less potent than the corresponding triphosphate, turkey erythrocyte ([1]; relative to corresponding triphosphate) | activity/potency in words, taenia coli [4] | selectivity for the adenylyl cyclase linked (C6 cell) receptor [3] | activity/potency/selectivity in words, aorta ([2]; rabbit aorta endothelial P2Y receptor) | activity/potency in words, vas deferens [7] | activity/potency in words, bladder [8] | EC50 ([1]; K0.5, turkey erythrocyte membranes, read from graph) [nM] | fold less potent than ATP, turkey erythrocyte ([1]; relative to ATP)
 |  | Nc1nc(SCCc2ccc([N+](=O)[O-])cc2)nc2c1ncn2[C@@H]1O[C@H](COP(=O)(O)OP(=O)(O)OP(=O)(O)O)[C@@H](O)[C@H]1O [2-(2-p-Nitrophenylethyl)-thio-ATP, 2[2-(p-Nitrophen)ethylthio]adenosine 5'-triphosphate] | at least two orders of magnitude more potent | 12 ± 4 | 5 to 30 nM | 6.2 | 1 ± 0.4 | only moderate selectivity for C6 cell receptors | 31.6 | 2.6 | 7.0 |  |  |  |  |  |  |  | 
 |  | C=CCCCCSc1nc(N)c2ncn([C@@H]3O[C@H](COP(=O)(O)OP(=O)(O)O)[C@@H](O)[C@H]3O)c2n1 [2-(5-Hexenyl)thio-ADP, 2-(5-hexenylthio)-adenosine 5'-diphosphate] |  | 6.8 ± 3 | 4 nM |  | 0.07 ± 0.02 | approximately the same degree of selectivity | 3.63 |  |  |  |  |  |  |  |  |  | 
 |  | C=CCCCCSc1nc(N)c2ncn([C@@H]3O[C@H](COP(=O)(O)O)[C@@H](O)[C@H]3O)c2n1 [2-(5-Hexenyl)thio-AMP, 2-(5-hexenylthio)adenosine 5'-monophosphate] |  | 328 ± 43 |  | 7.0 | 2 ± 0.18 |  | 1000 |  | 6.3 | 33 -fold |  |  |  |  |  |  | 
 |  | C=CCCCCSc1nc(N)c2ncn([C@@H]3O[C@H](COP(=O)(O)OP(=O)(O)OP(=O)(O)O)[C@@H](O)[C@H]3O)c2n1 [2-(S-Hexenyl)thio-ATP, 2-(5-hexenylthio)adenosine 5'-triphosphate] | at least two orders of magnitude more potent | 10 ± 4 | 5 to 30 nM and 10 nM |  | 0.12 ± 0.06 |  | 12.6 |  | 7.0 |  | significantly more potent than ATP itself, at least by one order of magnitude |  |  |  |  |  | 
 |  | CCCCCCSc1nc(N)c2ncn([C@@H]3O[C@H](COP(=O)(O)OP(=O)(O)OP(=O)(O)O)[C@@H](O)[C@H]3O)c2n1 [2-Hexylthio-ATP, 2-hexylthio-ATP] | at least two orders of magnitude more potent | 5 ± 1 | 5 to 30 nM | 6.7 | 0.03 ± 0.005 |  | 31.6 |  | 6.7 |  | significantly more potent than ATP itself, at least by one order of magnitude | 170 -fold |  |  |  |  | 
inactive | inactive | O=c1[nH]c(=O)n([C@@H]2O[C@H](COP(=O)(O)OP(=O)(O)OP(=O)(O)O)[C@@H](O)[C@H]2O)cc1F [5-F-UTP, 5-Fluorouridine 5'-triphosphate] | only a weak agonist | > 100000 |  | 6.0 |  |  |  |  |  |  | only a weak agonist |  | more potent than ATP | inactive; also recorded: without effect in the vas deferens | more potent than ATP; also recorded: as potent as or more potent than ATP in the bladder |  | 
 |  | Nc1ncnc2c1ncn2[C@@H]1O[C@H](COP(=O)(O)OP(=O)(O)O)[C@@H](O)[C@H]1O [ADP, adenosine 5'-diphosphate, reference compound] |  | 8000 ± 2000 |  | 5.2 |  |  |  |  | 5.2 |  | equipotent to ATP | 120 -fold |  | less potent than ATP | equipotent with ATP | 3160 | 3 -fold

— patent publication US5620676A, “Biologically active ATP analogs” (priority 1995, dated 1997)
